For series [1] the following is noted: cited from earlier work.
A short description of series [2]: Plasma concentrations of liraglutide formulations in db/db mice. In kind it is in vivo. The note with it: 200 μg/kg SC daily. On the procedure:
Treatment Groups: 1. Naïve control normal mice (n=6) • 2. Placebo (vehicle) control db/db mice (n=8) • 3.
• Ad lib fed blood glucose levels were recorded every 3rd day throughout the study period i.e. on Day-1, Day-3, Day-6, Day-9, Day-12, Day-15, Day-18, Day-21, Day-24, and Day-27. […] (before treatment) and 3 hr. post treatment. • On Day-1 and Day-28, blood samples were collected for the measurement of HbA1C levels. • Body weight and feed intake were recorded every day throughout treatment period.

For series [3] the following is noted: in vivo; cited from earlier work.

Take `CCCCCCCCCCCCCCCC(=O)N[C@@H](CCC(=O)NCCCC[C@H](NC(=O)[C@H](C)NC(=O)[C@H](C)NC(=O)[C@H](CCC(N)=O)NC(=O)CNC(=O)[C@H](CCC(=O)O)NC(=O)[C@H](CC(C)C)NC(=O)[C@H](Cc1ccc(O)cc1)NC(=O)[C@H](CO)NC(=O)[C@H](CO)NC(=O)[C@@H](NC(=O)[C@H](CC(=O)O)NC(=O)[C@H](CO)NC(=O)[C@@H](NC(=O)[C@H](Cc1ccccc1)NC(=O)[C@@H](NC(=O)CNC(=O)[C@H](CCC(=O)O)NC(=O)[C@H](C)NC(=O)[C@@H](N)Cc1cnc[nH]1)[C@@H](C)O)[C@@H](C)O)C(C)C)C(=O)N[C@@H](CCC(=O)O)C(=O)N[C@@H](Cc1ccccc1)C(=O)N[C@H](C(=O)N[C@@H](C)C(=O)N[C@@H](Cc1c[nH]c2ccccc12)C(=O)N[C@@H](CC(C)C)C(=O)N[C@H](C(=O)N[C@@H](CCCNC(=N)N)C(=O)NCC(=O)N[C@@H](CCCNC(=N)N)C(=O)NCC(=O)O)C(C)C)[C@@H](C)CC)C(=O)O` [L-API, liraglutide]: in series [1] (VICTOZA Prescribing Information), the “Steady state therapeutic plasma concentration” value was “about 128 ng/mL”. Besides, the “Human range for clinically effective concentrations” value in series [1] (human, Ingwersen S. H. et al. J. Clin. Pharmacol. 2012) was 5 to 45 nmol/L. Moreover, the “Plasma levels (in words)” value is “increase in plasma levels” in series [2] (post 3 hr. of injection) and “detectable plasma levels” in series [2] (post 24 hr. of treatment).

Take GLP-1: the Pharmacokinetic half-life in series [3] is 2 to 5 min.

The record behind these values is patent US20230256058A1 (MAPI PHARMA LTD., priority 2020, published 2023).
